According to patent US5059589A, “Glaucoma treatment” (Abbott Laboratories, priority 1990, dated 1991):

Experiments:
[1] = tested on: intraocular pressure in rabbits; assay: Dose response study of topically administered Compound V and timolol on intraocular pressure of rabbits; type: in vivo, rabbit; settings: topical
Protocol: (§1) The antiglaucoma activity of the compounds was tested by measuring the effect on intraocular pressure in rabbits as described by Tinjum, A.M., Acta Ophthalmologica, 50, 677 (1972). Male albino, New Zealand rabbits were placed in restraining devices and the intraocular pressure was measured with an applamatic tonometer. […]

[2] = tested on: intraocular pressure in rabbits; assay: Topically administered Compound V alone and in combination with timolol on intraocular pressure of rabbits; type: in vivo, rabbit; settings: topical, alone
Protocol: as §1

[3] = tested on: intraocular pressure in rabbits; assay: Effects of topically administered renin inhibiting compounds on intraocular pressure of rabbits; type: in vivo, Male albino, New Zealand rabbits; settings: topical 0.1 ml, 0.5% active substance
Protocol: The antiglaucoma activity of the compounds was tested by measuring the effect on intraocular pressure in rabbits as described by Tinjum, A.M., Acta Ophthalmologica, 50, 677 (1972). Male albino, New Zealand rabbits were placed in restraining devices and the intraocular pressure was measured with an applamatic tonometer. Exactly 0.1 ml of an isotonic saline solution containing a test compound was instilled into the conjuctival sac and the intraocular pressure was measured at 5, 15, 30, 60, 90, 120 and 180 minutes afterwards.

[4] = 0.03%, 5 minutes after administration
[5] = 0.03%, 15 minutes after administration
[6] = 0.03%, 30 minutes after administration
[7] = 0.03%, 60 minutes after administration
[8] = 0.03%, 90 minutes after administration
[9] = 0.03%, 120 minutes after administration
[10] = 0.03%, 150 minutes after administration
[11] = 0.05%, 15 minutes after administration
[12] = 0.05%, 30 minutes after administration
[13] = 0.05%, 60 minutes after administration

## COc1ccc(CC(NC(=O)CC(C)(C)N)C(=O)NC(Cc2cnc[nH]2)C(=O)N[C@@H](CC2CCCCC2)[C@@H](O)[C@@H](O)CC(C)C)cc1 (stereo partly drawn) [Compound V, H-((beta,beta-dimethyl)-beta Ala)-(4-OCH3)Phe-His amide of 2(S)-amino 1-cyclohexyl 3(R),4(S) dihydroxy-6-methylheptane]
[1]; 0.01%, 5 minutes after administration
  Mean Intraocular Pressure in mmHg: 17.7 mmHg
[1]; 0.01%, 15 minutes after administration
  Mean Intraocular Pressure in mmHg: 16.3 mmHg
[1]; 0.01%, 30 minutes after administration
  Mean Intraocular Pressure in mmHg: 13.7 mmHg
[1]; 0.01%, 60 minutes after administration
  Mean Intraocular Pressure in mmHg: 16.9 mmHg
[1]; 0.01%, 90 minutes after administration
  Mean Intraocular Pressure in mmHg: 15.4 mmHg
[1]; 0.01%, 120 minutes after administration
  Mean Intraocular Pressure in mmHg: 18.2 mmHg
[1]; 0.01%, 150 minutes after administration
  Mean Intraocular Pressure in mmHg: 20.3 mmHg
[1]; 0.01%, CONTROL
  Mean Intraocular Pressure in mmHg: 19.2 mmHg
[1]; [4]
  Mean Intraocular Pressure in mmHg: 13.8 mmHg
[1]; [5]
  Mean Intraocular Pressure in mmHg: 13.3 mmHg
[1]; [6]
  Mean Intraocular Pressure in mmHg: 12.8 mmHg
[1]; [7]
  Mean Intraocular Pressure in mmHg: 13.8 mmHg
[1]; [8]
  Mean Intraocular Pressure in mmHg: 13.8 mmHg
[1]; [9]
  Mean Intraocular Pressure in mmHg: 15.2 mmHg
[1]; [10]
  Mean Intraocular Pressure in mmHg: 16.8 mmHg
[1]; 0.03%, CONTROL
  Mean Intraocular Pressure in mmHg: 19.0 mmHg
[1]; 0.1%, 5 minutes after administration
  Mean Intraocular Pressure in mmHg: 14.1 mmHg
[1]; 0.1%, 15 minutes after administration
  Mean Intraocular Pressure in mmHg: 13.1 mmHg
[1]; 0.1%, 30 minutes after administration
  Mean Intraocular Pressure in mmHg: 11.9 mmHg
[1]; 0.1%, 60 minutes after administration
  Mean Intraocular Pressure in mmHg: 11.3 mmHg
[1]; 0.1%, 90 minutes after administration
  Mean Intraocular Pressure in mmHg: 11.5 mmHg
[1]; 0.1%, 120 minutes after administration
  Mean Intraocular Pressure in mmHg: 17.5 mmHg
[1]; 0.1%, 150 minutes after administration
  Mean Intraocular Pressure in mmHg: 19.0 mmHg
[1]; 0.1%, CONTROL
  Mean Intraocular Pressure in mmHg: 18.7 mmHg
[1]; 0.3%, 5 minutes after administration
  Mean Intraocular Pressure in mmHg: 13.3 mmHg
[1]; 0.3%, 15 minutes after administration
  Mean Intraocular Pressure in mmHg: 12.0 mmHg
[1]; 0.3%, 30 minutes after administration
  Mean Intraocular Pressure in mmHg: 10.9 mmHg
[1]; 0.3%, 60 minutes after administration
  Mean Intraocular Pressure in mmHg: 12.2 mmHg
[1]; 0.3%, 90 minutes after administration
  Mean Intraocular Pressure in mmHg: 12.4 mmHg
[1]; 0.3%, 120 minutes after administration
  Mean Intraocular Pressure in mmHg: 16.0 mmHg
[1]; 0.3%, 150 minutes after administration
  Mean Intraocular Pressure in mmHg: 18.8 mmHg
[1]; 0.3%, CONTROL
  Mean Intraocular Pressure in mmHg: 21.2 mmHg
[2]; [4]
  Mean Intraocular Pressure in mmHg: 10.4 mmHg
[2]; [5]
  Mean Intraocular Pressure in mmHg: 10.3 mmHg
[2]; [6]
  Mean Intraocular Pressure in mmHg: 10.1 mmHg
[2]; [7]
  Mean Intraocular Pressure in mmHg: 10.2 mmHg
[2]; [8]
  Mean Intraocular Pressure in mmHg: 10.4 mmHg
[2]; [9]
  Mean Intraocular Pressure in mmHg: 14.5 mmHg
[2]; [10]
  Mean Intraocular Pressure in mmHg: 17.0 mmHg
[2]; 0.03%, CONTROL
  Mean Intraocular Pressure in mmHg: 17.5 mmHg

## CC(C)(C)NC[C@H](O)COc1nsnc1N1CCOCC1 [Timolol, reference compound]
[3]; 5 minutes after administration
  Mean Intraocular Pressure in mmHg: 12.1 mmHg
[3]; 15 minutes after administration
  Mean Intraocular Pressure in mmHg: 9.9 mmHg
[3]; 30 minutes after administration
  Mean Intraocular Pressure in mmHg: 11.9 mmHg
[3]; 60 minutes after administration
  Mean Intraocular Pressure in mmHg: 10.6 mmHg
[3]; 90 minutes after administration
  Mean Intraocular Pressure in mmHg: 12.4 mmHg
[3]; 120 minutes after administration
  Mean Intraocular Pressure in mmHg: 13.3 mmHg
[1]; 0.02%, 30 minutes after administration
  Mean Intraocular Pressure in mmHg: 13.9 mmHg
[1]; 0.02%, 120 minutes after administration
  Mean Intraocular Pressure in mmHg: 22.4 mmHg
[1]; 0.02%, 150 minutes after administration
  Mean Intraocular Pressure in mmHg: 19.9 mmHg
[1]; [11]
  Mean Intraocular Pressure in mmHg: 12.8 mmHg
[1]; [12]
  Mean Intraocular Pressure in mmHg: 12.8 mmHg
[1]; [13]
  Mean Intraocular Pressure in mmHg: 12.3 mmHg
[1]; 0.05%, 150 minutes after administration
  Mean Intraocular Pressure in mmHg: 20.3 mmHg
[1]; 0.2%, 5 minutes after administration
  Mean Intraocular Pressure in mmHg: 12.1 mmHg
[1]; 0.2%, 15 minutes after administration
  Mean Intraocular Pressure in mmHg: 12.5 mmHg
[1]; 0.2%, 60 minutes after administration
  Mean Intraocular Pressure in mmHg: 12.8 mmHg
[1]; 0.5%, 5 minutes after administration
  Mean Intraocular Pressure in mmHg: 12.8 mmHg
[1]; 0.5%, 15 minutes after administration
  Mean Intraocular Pressure in mmHg: 12.8 mmHg
[1]; 0.5%, 30 minutes after administration
  Mean Intraocular Pressure in mmHg: 11.0 mmHg
[1]; 0.5%, 60 minutes after administration
  Mean Intraocular Pressure in mmHg: 10.9 mmHg
[2]; 0.05%, 5 minutes after administration
  Mean Intraocular Pressure in mmHg: 10.2 mmHg
[2]; [11]
  Mean Intraocular Pressure in mmHg: 11.0 mmHg
[2]; [12]
  Mean Intraocular Pressure in mmHg: 10.1 mmHg
[2]; [13]
  Mean Intraocular Pressure in mmHg: 9.9 mmHg
[2]; 0.05%, 90 minutes after administration
  Mean Intraocular Pressure in mmHg: 13.9 mmHg
